What was measured:
[1] = Stability/degradation in aqueous citric acid or citrate buffer under heat, followed by HPLC; format: physicochemical
Description: […] reactions were set up under identical conditions as in Example 3 except for temperatures: 43° C., 65° C., 75° C., 85° C., and 90° C. reactions were set up and followed by HPLC-MS or UV (210 nm) detection.
Two studies were performed on the pH dependency of the synthesis of iso-rebaudioside A (Cmpd X) from rebaudioside A (Reb A). Rebaudioside A was dissolved at the same concentration in a series of aqueous citric acid solutions, each having a different pH. The solutions were heated to 43° C. for 11 weeks. One study was performed with solutions at pH 2.0, 4.0, and 7.0. The other study was performed with solutions at pH 2.5, 3.0, and 3.5. Results of the two studies are shown in FIGS. 17 and 18, respectively, wherein Reb A stands for rebaudioside A and Cmpd X stands for iso-rebaudioside A. In FIG. 17, the concentration of iso-rebaudioside A at pH 2 peaks at week 9 and decreases afterwards.

[2] = cited from earlier work; for stability under acidic conditions at 60° C.: pH 2.4 to 2.6, 60° C.; for stability under acidic conditions at 100° C.: pH 2.4 to 2.6, 100° C., yields hydrolysis byproducts
[3] = Sweetness tasting by a panel of five people, compared with sucrose solution
Description: Iso-rebaudioside A from the x-ray crystallography sample of Example 3 was dissolved in water at a concentration of 1000 ppm, and was found by a panel of five people to have a sweetness intensity similar to that of a 7% sucrose solution; therefore its sweetness potency was estimated to be 70 times that of sucrose.

Row | degradation in acidic solution ([1]; aqueous citric acid pH 2, 43° C., after week 9) | hydrolysis at elevated temperatures ([1]; citrate buffer pH 2, 43° C. to 90° C., HPLC-MS) | time of peak concentration before decrease (degradation) ([1]; pH 2) [week] | Compound | stability under acidic conditions at 60° C. [2] | stability under acidic conditions at 100° C. [2] | degradation in acidic solution ([1]; pH 2) | sweetness intensity, equivalent sucrose solution ([3]; 1000 ppm in water, panel of five people) [% sucrose solution] | sweetness potency relative to sucrose ([3]; estimated from 1000 ppm vs 7% sucrose)
1 | continues to decrease after week 9 | extensive hydrolysis occurred | – | C=C1C[C@@]23CC[C@H]4[C@@](C)(CCC[C@@]4(C)C(=O)O[C@@H]4O[C@H](CO)[C@@H](O)[C@H](O)[C@H]4O)[C@@H]2CC[C@]1(O[C@@H]1O[C@H](CO)[C@@H](O)[C@H](O[C@@H]2O[C@H](CO)[C@@H](O)[C@H](O)[C@H]2O)[C@H]1O[C@@H]1O[C@H](CO)[C@@H](O)[C@H](O)[C@H]1O)C3 [rebaudioside A] | quite stable | undergo drastic changes | – | – | –
2 | – | – | 9 | CC1=CC23CCC4C(C)(C(=O)OC5OC(CO)C(O)C(O)C5O)CCCC4(C)C2CCC1(OC1OC(CO)C(O)C(OC2OC(CO)C(O)C(O)C2O)C1OC1OC(CO)C(O)C(O)C1O)C3 (stereo not shown) [iso-rebaudioside A] | – | – | degraded/hydrolyzed into other steviol glycoside isomers | ~7 | 70 times that of sucrose
3 | – | – | – | C=C1C[C@@]23CC[C@H]4[C@@](C)(CCC[C@@]4(C)C(=O)O[C@@H]4O[C@H](CO)[C@@H](O)[C@H](O)[C@H]4O)[C@@H]2CC[C@]1(O[C@@H]1O[C@H](CO)[C@@H](O)[C@H](O)[C@H]1O[C@@H]1O[C@H](CO)[C@@H](O)[C@H](O)[C@H]1O)C3 [stevioside] | quite stable | undergo drastic changes | – | – | –

Source: patent publication US7964232B2, “Steviol glycoside isomers” (PepsiCo, Inc., priority 2007, dated 2011)
